Test results reported in patent publication US20060069132A1, “Azolecarboxamide herbicides” (priority 2004, published 2006).

Tests used:
giant foxtail = test: Test B pre-/postemergence herbicide test; type: in vivo, Setaria faberi
Procedure, shortened: (§1)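 Evaluation is visual, comparing treated with control plants on a scale where 0 means no effect and 100 means full control. Treatments were preemergence, or postemergence on seedlings 2–18 cm tall, and held 13–15 days in the greenhouse.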

velvetleaf = test: Test B pre-/postemergence herbicide test; type: in vivo, Abutilon theophrasti
Procedure, shortened: as §1

barnyardgrass [1] = test: Test B flooded paddy test; type: in vivo, Echinochloa crus-galli; details: 1000 g ai/ha, scale 0 to 100 (0 no effect, 100 complete control)
Procedure, shortened: (§2)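 Read-out: visual comparison with controls, scored 0 to 100, where 100 means complete control and 0 no effect. Formulated chemicals were applied postemergence to plants 2–18 cm tall (1- to 4-leaf), or to flooded-paddy plants at the 2-leaf stage, then held 13 to 15 days under glass.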

corn = test: Test B pre-/postemergence herbicide test; type: in vivo, Zea mays
Procedure, shortened: as §1

lambsquarters = test: Test B pre-/postemergence herbicide test; type: in vivo, Chenopodium album
Procedure, shortened: as §1

blackgrass = test: Test B postemergence herbicide test; type: in vivo, Alopecurus myosuroides
Procedure, shortened: as §2

ducksalad = test: Test B flooded paddy test; type: in vivo, Heteranthera limosa; details: 1000 g ai/ha, scale 0 to 100 (0 no effect, 100 complete control)
Procedure, shortened: as §2

wild oat = test: Test B postemergence herbicide test; type: in vivo, Avena fatua
Procedure, shortened: (§3)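 Each value is a visual 0–100 response rating taken against controls 13 to 15 days after treatment in the greenhouse. Plants received formulated chemical postemergence at the 1- to 4-leaf stage or, in flooded paddy, at the 2-leaf stage.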

morningglory = test: Test B pre-/postemergence herbicide test; type: in vivo, Ipomoea coccinea
Procedure, shortened: (§4)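 Pre: seeds sown, then sprayed. Post: 1–4-leaf plants (2–18 cm) sprayed at the same time. Paddy: flooded, treated at 2-leaf stage. Formulation: non-phytotoxic solvent with surfactant. Greenhouse 13–15 days; visual 0–100 score relative to controls.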

barnyardgrass [2] = test: Test B pre-/postemergence herbicide test; type: in vivo, Echinochloa crus-galli
Procedure, shortened: as §4

large crabgrass = test: Test B pre-/postemergence herbicide test; type: in vivo, Digitaria sanguinalis
Procedure, shortened: as §1

[3] = tested on: small flower umbrella sedge; test: Test B flooded paddy test; type: in vivo, Cyperus difformis; details: 1000 g ai/ha, scale 0 to 100 (0 no effect, 100 complete control)
Procedure, shortened: as §2

cocklebur = test: Test B pre-/postemergence herbicide test; type: in vivo, Xanthium strumarium
Procedure, shortened: as §4

pigweed = test: Test B pre-/postemergence herbicide test; type: in vivo, Amaranthus retroflexus
Procedure, shortened: as §1

rice = test: Test B flooded paddy test; type: in vivo, Oryza sativa; details: 1000 g ai/ha, scale 0 to 100 (0 no effect, 100 complete control)
Procedure, shortened: as §3

[4] = 125 g ai/ha; 0 = no effect, 100 = complete control; preemergence
[5] = 500 g ai/ha; visual rating, 0 = no effect, 100 = complete control; preemergence
[6] = postemergence, 125 g ai/ha; visual rating, scale 0 (no effect) to 100 (complete control)
[7] = postemergence, 500 g ai/ha; scale 0 to 100, 0 is no effect, 100 is complete control
[8] = 125 g ai/ha; visual rating, scale 0 (no effect) to 100 (complete control); postemergence

Structure (SMILES): CCn1nc(C(C)(C)C)cc1C(=O)Nc1cccc(OC(F)(F)F)c1 [Compound 272]
- Foxtail, Giant plant response rating (0 to 100 scale) (giant foxtail; [4]): 30
- Plant response rating, Foxtail, Giant (giant foxtail; [5]): 90
- Foxtail, Giant plant response rating (giant foxtail; [6]): 10
- Foxtail, Giant plant response rating (giant foxtail; [7]): 30
- Velvetleaf plant response rating (0 to 100 scale) (velvetleaf; [4]): 10
- Plant response rating, Velvetleaf (velvetleaf; [5]): 50
- Velvetleaf plant response rating (velvetleaf; [6]): 50
- Velvetleaf plant response rating (velvetleaf; [7]): 100
- Barnyardgrass plant response rating (barnyardgrass [1]): 50
- Corn plant response rating (0 to 100 scale) (corn; [4]): 0
- Plant response rating, Corn (corn; [5]): 10
- Corn plant response rating (corn; [6]): 30
- Corn plant response rating (corn; [7]): 40
- Lambsquarters plant response rating (0 to 100 scale) (lambsquarters; [4]): 100
- Plant response rating, Lambsquarters (lambsquarters; [5]): 100
- Lambsquarters plant response rating (lambsquarters; [6]): 100
- Lambsquarters plant response rating (lambsquarters; [7]): 100
- Blackgrass plant response rating (blackgrass; [6]): 60
- Blackgrass plant response rating (blackgrass; [7]): 100
- Ducksalad plant response rating (ducksalad): 80
- Oat, Wild plant response rating (wild oat; [6]): 60
- Oat, Wild plant response rating (wild oat; [7]): 90
- Morningglory plant response rating (0 to 100 scale) (morningglory; [4]): 0
- Plant response rating, Morningglory (morningglory; [5]): 30
- Morningglory plant response rating (morningglory; [6]): 90
- Morningglory plant response rating (morningglory; [7]): 100
- Barnyardgrass plant response rating (0 to 100 scale) (barnyardgrass [2]; [4]): 10
- Plant response rating, Barnyardgrass (barnyardgrass [2]; [5]): 90
- Barnyardgrass plant response rating (barnyardgrass [2]; [6]): 20
- Barnyardgrass plant response rating (barnyardgrass [2]; [7]): 80
- Crabgrass, Large plant response rating (0 to 100 scale) (large crabgrass; [4]): 80
- Plant response rating, Crabgrass, Large (large crabgrass; [5]): 100
- Crabgrass, Large plant response rating (large crabgrass; [6]): 10
- Crabgrass, Large plant response rating (large crabgrass; [7]): 70
- Sedge, Umbrella plant response rating [3]: 80
- Cocklebur plant response rating (0 to 100 scale) (cocklebur; [4]): 0
- Plant response rating, Cocklebur (cocklebur; [5]): 0
- Cocklebur plant response rating (cocklebur; [6]): 40
- Cocklebur plant response rating (cocklebur; [7]): 90
- Pigweed plant response rating (0 to 100 scale) (pigweed; [4]): 90
- Plant response rating, Pigweed (pigweed; [5]): 100
- Pigweed plant response rating (pigweed; [6]): 100
- Pigweed plant response rating (pigweed; [7]): 100
- Rice plant response rating (rice): 40

Structure (SMILES): CCn1nc(C(C)(C)C)cc1C(=O)Nc1cccc(OC(C)C)c1 [Compound 273]
- Foxtail, Giant plant response rating (0 to 100 scale) (giant foxtail; [4]): 50
- Plant response rating, Foxtail, Giant (giant foxtail; [5]): 90
- Foxtail, Giant plant response rating (giant foxtail; [6]): 10
- Foxtail, Giant plant response rating (giant foxtail; [7]): 20
- Velvetleaf plant response rating (0 to 100 scale) (velvetleaf; [4]): 10
- Plant response rating, Velvetleaf (velvetleaf; [5]): 40
- Velvetleaf plant response rating (velvetleaf; [6]): 40
- Velvetleaf plant response rating (velvetleaf; [7]): 70
- Barnyardgrass plant response rating (barnyardgrass [1]): 60
- Corn plant response rating (0 to 100 scale) (corn; [4]): 0
- Plant response rating, Corn (corn; [5]): 30
- Corn plant response rating (corn; [6]): 10
- Corn plant response rating (corn; [7]): 20
- Lambsquarters plant response rating (0 to 100 scale) (lambsquarters; [4]): 70
- Plant response rating, Lambsquarters (lambsquarters; [5]): 100
- Lambsquarters plant response rating (lambsquarters; [6]): 60
- Lambsquarters plant response rating (lambsquarters; [7]): 90
- Blackgrass plant response rating (blackgrass; [6]): 50
- Blackgrass plant response rating (blackgrass; [7]): 70
- Ducksalad plant response rating (ducksalad): 90
- Oat, Wild plant response rating (wild oat; [6]): 30
- Oat, Wild plant response rating (wild oat; [7]): 50
- Morningglory plant response rating (0 to 100 scale) (morningglory; [4]): 0
- Plant response rating, Morningglory (morningglory; [5]): 10
- Morningglory plant response rating (morningglory; [6]): 20
- Morningglory plant response rating (morningglory; [7]): 70
- Barnyardgrass plant response rating (0 to 100 scale) (barnyardgrass [2]; [4]): 30
- Plant response rating, Barnyardgrass (barnyardgrass [2]; [5]): 90
- Barnyardgrass plant response rating (barnyardgrass [2]; [6]): 20
- Barnyardgrass plant response rating (barnyardgrass [2]; [7]): 70
- Crabgrass, Large plant response rating (0 to 100 scale) (large crabgrass; [4]): 80
- Plant response rating, Crabgrass, Large (large crabgrass; [5]): 100
- Crabgrass, Large plant response rating (large crabgrass; [6]): 30
- Crabgrass, Large plant response rating (large crabgrass; [7]): 50
- Sedge, Umbrella plant response rating [3]: 80
- Cocklebur plant response rating (0 to 100 scale) (cocklebur; [4]): 0
- Plant response rating, Cocklebur (cocklebur; [5]): 0
- Cocklebur plant response rating (cocklebur; [6]): 20
- Cocklebur plant response rating (cocklebur; [7]): 80
- Pigweed plant response rating (0 to 100 scale) (pigweed; [4]): 70
- Plant response rating, Pigweed (pigweed; [5]): 100
- Pigweed plant response rating (pigweed; [6]): 80
- Pigweed plant response rating (pigweed; [7]): 90
- Rice plant response rating (rice): 40

Structure (SMILES): CCn1nc(C(C)(C)C)cc1C(=O)Nc1cccc(C(=O)N2CC=CC2)c1 [Compound 286]
- Foxtail, Giant plant response rating (0 to 100 scale) (giant foxtail; [4]): 10
- Plant response rating, Foxtail, Giant (giant foxtail; [5]): 90
- Foxtail, Giant plant response rating (giant foxtail; [6]): 20
- Foxtail, Giant plant response rating (giant foxtail; [7]): 50
- Velvetleaf plant response rating (0 to 100 scale) (velvetleaf; [4]): 0
- Plant response rating, Velvetleaf (velvetleaf; [5]): 60
- Velvetleaf plant response rating (velvetleaf; [6]): 10
- Velvetleaf plant response rating (velvetleaf; [7]): 60
- Barnyardgrass plant response rating (barnyardgrass [1]): 90
- Corn plant response rating (0 to 100 scale) (corn; [4]): 0
- Plant response rating, Corn (corn; [5]): 50
- Corn plant response rating (corn; [6]): 0
- Corn plant response rating (corn; [7]): 10
- Lambsquarters plant response rating (0 to 100 scale) (lambsquarters; [4]): 100
- Plant response rating, Lambsquarters (lambsquarters; [5]): 100
- Lambsquarters plant response rating (lambsquarters; [6]): 10
- Lambsquarters plant response rating (lambsquarters; [7]): 70
- Blackgrass plant response rating (blackgrass; [6]): 10
- Blackgrass plant response rating (blackgrass; [7]): 20
- Ducksalad plant response rating (ducksalad): 90
- Oat, Wild plant response rating (wild oat; [6]): 30
- Oat, Wild plant response rating (wild oat; [7]): 40
- Morningglory plant response rating (0 to 100 scale) (morningglory; [4]): 0
- Plant response rating, Morningglory (morningglory; [5]): 0
- Morningglory plant response rating (morningglory; [6]): 0
- Morningglory plant response rating (morningglory; [7]): 0
- Barnyardgrass plant response rating (0 to 100 scale) (barnyardgrass [2]; [4]): 30
- Plant response rating, Barnyardgrass (barnyardgrass [2]; [5]): 90
- Barnyardgrass plant response rating (barnyardgrass [2]; [6]): 0
- Barnyardgrass plant response rating (barnyardgrass [2]; [7]): 0
- Crabgrass, Large plant response rating (0 to 100 scale) (large crabgrass; [4]): 0
- Plant response rating, Crabgrass, Large (large crabgrass; [5]): 100
- Crabgrass, Large plant response rating (large crabgrass; [6]): 0
- Crabgrass, Large plant response rating (large crabgrass; [7]): 10
- Sedge, Umbrella plant response rating [3]: 80
- Cocklebur plant response rating (0 to 100 scale) (cocklebur; [4]): 0
- Plant response rating, Cocklebur (cocklebur; [5]): 0
- Cocklebur plant response rating (cocklebur; [6]): 10
- Cocklebur plant response rating (cocklebur; [7]): 20
- Pigweed plant response rating (0 to 100 scale) (pigweed; [4]): 100
- Plant response rating, Pigweed (pigweed; [5]): 100
- Pigweed plant response rating (pigweed; [6]): 60
- Pigweed plant response rating (pigweed; [7]): 100
- Rice plant response rating (rice): 70

Structure (SMILES): CCn1nc(C(C)(C)C)cc1C(=O)Nc1cncc(C(=O)N(C)C)n1 [Compound 287]
- Foxtail, Giant plant response rating (0 to 100 scale) (giant foxtail; [4]): 10
- Foxtail, Giant plant response rating (giant foxtail; [8]): 20
- Plant response rating, Foxtail, Giant (giant foxtail; [5]): 90
- Foxtail, Giant plant response rating (giant foxtail; [7]): 80
- Velvetleaf plant response rating (velvetleaf; [8]): 0
- Plant response rating, Velvetleaf (velvetleaf; [5]): 100
- Velvetleaf plant response rating (velvetleaf; [7]): 60
- Barnyardgrass plant response rating (barnyardgrass [1]): 80
- Corn plant response rating (0 to 100 scale) (corn; [4]): 0
- Corn plant response rating (corn; [8]): 0
- Plant response rating, Corn (corn; [5]): 30
- Corn plant response rating (corn; [7]): 70
- Lambsquarters plant response rating (0 to 100 scale) (lambsquarters; [4]): 100
- Lambsquarters plant response rating (lambsquarters; [8]): 10
- Plant response rating, Lambsquarters (lambsquarters; [5]): 100
- Lambsquarters plant response rating (lambsquarters; [7]): 20
- Blackgrass plant response rating (blackgrass; [8]): 10
- Blackgrass plant response rating (blackgrass; [7]): 30
- Ducksalad plant response rating (ducksalad): 80
- Oat, Wild plant response rating (wild oat; [8]): 20
- Oat, Wild plant response rating (wild oat; [7]): 40
- Morningglory plant response rating (0 to 100 scale) (morningglory; [4]): 0
- Morningglory plant response rating (morningglory; [8]): 0
- Plant response rating, Morningglory (morningglory; [5]): 10
- Morningglory plant response rating (morningglory; [7]): 20
- Barnyardgrass plant response rating (0 to 100 scale) (barnyardgrass [2]; [4]): 80
- Barnyardgrass plant response rating (barnyardgrass [2]; [8]): 0
- Plant response rating, Barnyardgrass (barnyardgrass [2]; [5]): 100
- Barnyardgrass plant response rating (barnyardgrass [2]; [7]): 20
- Crabgrass, Large plant response rating (0 to 100 scale) (large crabgrass; [4]): 70
- Crabgrass, Large plant response rating (large crabgrass; [8]): 0
- Plant response rating, Crabgrass, Large (large crabgrass; [5]): 100
- Crabgrass, Large plant response rating (large crabgrass; [7]): 0
- Sedge, Umbrella plant response rating [3]: 80
- Cocklebur plant response rating (0 to 100 scale) (cocklebur; [4]): 0
- Cocklebur plant response rating (cocklebur; [8]): 10
- Plant response rating, Cocklebur (cocklebur; [5]): 60
- Cocklebur plant response rating (cocklebur; [7]): 10
- Pigweed plant response rating (0 to 100 scale) (pigweed; [4]): 90
- Pigweed plant response rating (pigweed; [8]): 20
- Plant response rating, Pigweed (pigweed; [5]): 100
- Pigweed plant response rating (pigweed; [7]): 30
- Rice plant response rating (rice): 70
